According to patent US20070021391A1, “Preventive/remedy for urinary disturbance” (priority 2003, published 2007):
Structures can show the parent of a compound that is named as a salt. Where two headings read alike, the source gives them in different places.

Legend:
male SD rat = test: Acetylcholine inductive salivation in rat (Example 5); format: in vivo; details: for Amount of saliva secreted: rat
Procedure: (§1) A male SD rat (CLEA Japan Inc.) with a body weight of about 400 g or a Hartley male guinea pig with a body weight of 400 to 500 g (Japan SLC) were used. After urethane anesthesia, sanitary cotton preliminarily weighed was inserted in the mouth of the animal and acetylcholine was intravenously administrated. After 5 minutes, the sanitary cotton was taken out to be weighed and the amount of saliva secreted was measured. The drug was intravenously administrated at 10 min before the administration of acetylcholine. The effect of oxybutynin was analyzed by paired t calibration and the concomitant use effect of the compound A was analyzed by William calibration.

Hartley male guinea pig = test: Acetylcholine inductive salivation in guinea pig (Example 5); format: in vivo
Procedure: as §1

[1] = target: T1, acetylcholine esterase of human erythrocyte origin (Homo sapiens, UniProt P22303); test: biochemical; format: biochemical; details: for Selectivity b/a: BuChE IC50/AChE IC50 (Table 3)
T1 construct: acetylcholine esterase of human erythrocyte origin; purchased Sigma, St. Louis, Mo., USA; host or cells: human erythrocytes
Procedure: (§2) The AChE inhibitory activity and the BuChE inhibitory activity were determined by a thiocholine method (Ellman method) using acetylcholine esterase of human erythrocyte origin (Sigma, St. Louis, Mo., USA) and butyrylcholine esterase of human serum origin (Biogenesis, Poole, UK). Acetylcholine esterase or butyrylcholine esterase was diluted to a concentration of 0.2 IU/mL with 80 mM tris-HCL buffers (pH=7.4) containing 0.3% bovine serum albumin (BSA) to prepare an enzyme preparation. […] The stock solution was diluted at 3-fold common ratio with 10% DMSO and 80 mM tris-HCl buffers containing 0.3% BSA. On a 96 wells microplate, 20 μL of the drug solution with a given concentration, 30 μL of 80 mM tris-HCl buffers containing 0.3% BSA and 50 μL of the enzyme preparation were distributed, and incubated at room temperature for 1 hour after shaking for 10 seconds. […] For the respective drugs, the test was repeated twice. The % of control of the increase in light absorption was calculated at each concentration with respect to the respective drugs. % of control=increase in light absorption of drug/increase in light absorption of control×100

[2] = target: T2, butyrylcholine esterase of human serum origin (Homo sapiens, UniProt P06276); test: biochemical; format: biochemical; details: read-out: BuChE IC50
T2 construct: butyrylcholine esterase of human serum origin; purchased Biogenesis, Poole, UK; host or cells: human serum
Procedure: as §2

[3] = tested on: Hartley male guinea pig, urethane anesthesia; test: Pressure/flow study using guinea pig under continuous phenylephrine (Example 4); format: in vivo; details: i.v., phenylephrine 3 μg/animal/min
Procedure: A parameter (the maximum urine flow rate) at urination and a parameter (bladder compliance) at the collection of urine were also measured by a method similar as Example 3 shown below, with respect to the compounds B1 to B6 ([Table 8]).
A Hartley male guinea pig of 4 to 5 weeks old (Japan SLC) was used. After urethane anesthesia, the medial incision of the lower abdomen was carried out, and the bladder was exposed. Two injection needles (20G) with which a polyethylene tube (PE-100) was linked were inserted in the bladder, and one needle was used for injection of saline and another needle was used for measurement of the inner pressure of the bladder. A catheter was inserted in fernoral vein, and phenylephrine was continuously administrated at a flow rate of 3 μg/animal/min. Saline was continuously injected at a speed of 18 mL/h, the injection was stopped after intermittent urination was confirmed 2 times at minimum, and the saline in the bladder was removed by suction. Injection was started again, and the injection was stopped when the raise of the inner pressure of the bladder just before urination was confirmed. The amount of urine eliminated was measured by an electronic weighing machine and the inner pressure of the bladder was measured using a pressure transducer. The analogue data of the weight of urine and the inner pressure of the bladder were inputted in a multi-channel data analyzer (MP-100A-CE, Biopac systems), and analyzed by a proprietary software (Acqknowledge, Biopac systems). As the parameters, the maximum urine flow rate and bladder compliance were measured. Saline in the bladder was extracted after 10 min of the intravenous administration of the compound, and injection was started again to carry out measurement. The compounds were dissolved with DMSO so that administration volume was 0.5 mL/kg. The change rate of respective parameters before and after administration of the compounds was calculated and the calibration of significant difference was carried out by a solvent administration group and t calibration.

[4] = tested on: Hartley male guinea pig, urethane anesthesia; test: Urine flow dynamic parameters with oxybutynin and compound A (Example 6); format: in vivo; details: oxybutynin 1 mg/kg
Procedure: A Hartley male guinea pig with a body weight of about 500 g (Japan SLC Hamamatsu) was used. After urethane anesthesia (1.4 g/kg, i.p.), the medial incision of the lower abdomen was carried out, and the bladder was exposed. Two injection needles (20G) with which a polyethylene tube (PE-100, Becton Dickinson, Franklin Lakes, N.J., USA) was linked were inserted in the bladder, and one needle was used for injection of saline and another needle was used for measurement of the inner pressure of the bladder. Further, a cannula (PE-10, Becton Dickinson) for injection of phenylephrine was inserted in right common jugular vein. […] The amount of urine eliminated was measured by an electronic weighing machine (GX-400, A&D, Tokyo) and the inner pressure of the bladder was measured using a pressure transducer (AP641G, NIPPON KODEN Corporation, Tokyo). The analogue data of the weight of urine and the inner pressure of the bladder were inputted in a multi-channel data analyzer (MP-100A-CE, Biopac systems), and analyzed by a proprietary software (Acqknowledge 3.7.1, Biopac systems). The sampling interval of data was 0.1 sec and a low pass filter was applied to the data of discharge amount and urine flow rate at 0.5 Hz in order to remove noise. A delay time of 0.1 sec in weighing the urine was rectified, and the urine flow rate was determined by differentiating the value of discharge amount. The dynamic state parameter of the flow of urine below was measured. A bladder volume, the maximum urine flow rate, urination efficiency (=amount of urination/bladder volume). The effect of oxybutynin was analyzed by the paired t calibration and the concomitant use effect of the compound A was analyzed by Dunnett calibration.

[5] = acetylcholine 1 mg/kg alone, 5 minutes
[6] = mean value of twice tests, read-out: AchE IC50

T1 sequence (P22303 32-617 isoform P22303-2 limits assumed): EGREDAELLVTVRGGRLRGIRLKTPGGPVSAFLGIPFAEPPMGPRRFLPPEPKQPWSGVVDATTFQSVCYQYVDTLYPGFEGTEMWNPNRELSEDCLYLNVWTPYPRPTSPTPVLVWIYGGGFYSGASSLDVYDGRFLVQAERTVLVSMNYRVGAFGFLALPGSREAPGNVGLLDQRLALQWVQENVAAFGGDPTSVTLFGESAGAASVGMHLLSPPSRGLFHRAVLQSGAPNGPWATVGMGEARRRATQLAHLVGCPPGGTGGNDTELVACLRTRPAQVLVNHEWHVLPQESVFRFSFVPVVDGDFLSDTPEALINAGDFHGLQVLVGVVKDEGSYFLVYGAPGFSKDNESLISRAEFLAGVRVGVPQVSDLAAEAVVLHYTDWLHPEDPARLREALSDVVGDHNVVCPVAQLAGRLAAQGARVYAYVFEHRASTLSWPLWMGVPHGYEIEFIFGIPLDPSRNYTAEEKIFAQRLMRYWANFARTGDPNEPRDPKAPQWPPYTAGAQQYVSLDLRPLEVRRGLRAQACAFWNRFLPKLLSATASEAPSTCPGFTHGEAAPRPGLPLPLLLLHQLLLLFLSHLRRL
T2 sequence (P06276 29-602): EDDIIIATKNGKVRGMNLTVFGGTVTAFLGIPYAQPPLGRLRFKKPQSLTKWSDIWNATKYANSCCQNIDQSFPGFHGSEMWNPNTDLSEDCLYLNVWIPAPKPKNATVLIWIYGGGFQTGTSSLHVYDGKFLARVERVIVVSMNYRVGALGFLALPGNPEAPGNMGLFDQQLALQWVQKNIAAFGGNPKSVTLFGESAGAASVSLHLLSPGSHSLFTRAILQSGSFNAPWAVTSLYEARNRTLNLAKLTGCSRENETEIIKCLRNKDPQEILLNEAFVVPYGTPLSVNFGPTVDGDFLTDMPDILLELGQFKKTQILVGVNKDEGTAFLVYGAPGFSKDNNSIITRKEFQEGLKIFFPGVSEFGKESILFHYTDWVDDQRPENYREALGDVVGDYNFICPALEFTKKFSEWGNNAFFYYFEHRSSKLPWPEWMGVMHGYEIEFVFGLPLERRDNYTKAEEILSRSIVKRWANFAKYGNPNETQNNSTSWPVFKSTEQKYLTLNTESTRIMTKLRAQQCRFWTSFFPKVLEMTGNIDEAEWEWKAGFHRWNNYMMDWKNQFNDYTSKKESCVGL

## CC(=O)OCC[N+](C)(C)C [Acetylcholine]
Male SD rat; [5]
  Amount of saliva secreted: 0.27 ± 0.04 g
Hartley male guinea pig; [5]
  Amount of saliva secreted: 0.23 ± 0.03 g

## CCNC(=O)N1CCc2cc(C(=O)CCCCNCCc3ccccc3OC)ccc21.Cl [Compound B4, N-ethyl-5-[5-[[2-(2-methoxyphenyl)ethyl]amino]pentanoyl]-1-indolincarboxamide hydrochloride]
[1]
  IC50: 118 nM
  Selectivity b/a: >85
[2]
  IC50: > 10000 nM
[3]; 0.3 mg/kg
  Bladder compliance, proportion for value before administration: 104.2 ± 8.1
  Maximum urine flow rate, proportion for value before administration: 165.4 ± 14.9

## COc1ccccc1CCNCCCCC(=O)c1ccc2c(c1)n(C)c(=O)n2C [Compound B5, 5-[5-[[2-(2-methoxyphenyl)ethyl]amino]pentanoyl]-1,3-dimethyl-1,3-dihydro-2H-benzoimidazol-2-one) hydrochloride]
[1]
  Selectivity b/a: >150
[1]; [6]
  IC50: 65 nM
[2]; mean value of twice tests
  IC50: > 10000 nM
[3]; 0.03 mg/kg
  Bladder compliance, proportion for value before administration: 95.0 ± 4.3
  Maximum urine flow rate, proportion for value before administration: 135.5 ± 19.1

## Cn1c(=O)n(C)c2cc(C(=O)CCCCNCCc3ccccc3Cl)ccc21 [Compound B6, 5-[5-[[2-(2-chlorophenyl)ethyl]amino]pentanoyl]-1,3-dimethyl-1,3-dihydro-2H-benzoimidazol-2-one) hydrochloride]
[1]
  Selectivity b/a: >140
[1]; [6]
  IC50: 71 nM
[2]; mean value of twice tests
  IC50: > 10000 nM
[3]; 0.1 mg/kg
  Bladder compliance, proportion for value before administration: 98.6 ± 6.9
  Maximum urine flow rate, proportion for value before administration: 147.1 ± 26.2

## CCN(CC)CC#CCOC(=O)C(O)(c1ccccc1)C1CCCCC1 (stereo not drawn) [Oxybutynin]
Male SD rat; rat and guinea pig (Tables 9 and 10)
  action on acetylcholine-induced secretion of saliva: significantly suppressed
Male SD rat; oxybutynin 0.1 mg/kg + acetylcholine 1 mg/kg
  Amount of saliva secreted: 0.17 ± 0.02 g
Hartley male guinea pig; oxybutynin 1 mg/kg + acetylcholine 1 mg/kg
  Amount of saliva secreted: 0.11 ± 0.02 g
[4]; iv alone
  Bladder volume, proportion for value before administration (%): 28.87 ± 7.01 %
  Maximum urine flow rate, proportion for value before administration (%): −44.42 ± 9.44 %
  Urination efficiency, proportion for value before administration (%): −66.14 ± 5.91 %
[4]; compound A 0.003, 0.01 mg/kg with oxybutynin
  action on bladder volume, maximum urine flow rate and urination efficiency: significant increase of bladder volume and the lowering of the maximum urine flow rate and urination efficiency were confirmed
